Where two headings read alike, the source gives them in different places. Bridge positions count the residues as written; N and C are the ends. Square brackets hold non-standard residues; d marks the D form. Peptide text beside a SMILES is read from it. * marks the point of attachment. Val(Nα-amidino) = CC(C)[C@H](NC(=N)N)C(=O)*; Pro(4R-NH2) = N[C@H]1CN[C@H](C(=O)O)C1; Pen = CC(C)(S)[C@H](N)C(=O)O; dDab = NCC[C@@H](N)C(=O)O; Dab = NCC[C@H](N)C(=O)O
Assays:
[1] = tested on: Escherichia coli ATCC 25922; conditions: ATCC 25922
How it was run: (§1)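 Standardized inocula (0.5 McFarland in saline, then diluted in MHII broth to approximately 5×10^5 CFU/mL) were exposed to two-fold dilution series of each peptide in the presence of polysorbate 80 (0.002% final).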

[2] = tested on: Escherichia coli MCR-1 Af 45
How it was run: as §1

[3] = tested on: Klebsiella pneumoniae SSI3010; conditions: SSI3010
How it was run: as §1

[4] = tested on: human red blood cells (hRBC); assay: Hemolysis of human red blood cells; format: cell-based; conditions: red cells of human, 1 h
How it was run: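 Percent hemolysis is OD540 of peptide-treated supernatant relative to water-lysed cells. Each peptide was tested at 200 μg/mL against 20% (v/v) washed human erythrocytes. Incubation was 1 h at 37 °C, 300 rpm.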

[5] = Mueller-Hinton broth II, 18-20 hours at 35° C.

Compound	Escherichia coli ATCC 25922 MIC [1] [mg/L]	Klebsiella pneumoniae SSI3010 MIC [3] [mg/L]	Escherichia coli MCR-1 Af 45 MIC ([2]; MCR-1 Af 45) [mg/L]	Escherichia coli MCR-1 Af 45 MIC [2, 5] [mg/L]	Hemolysis at 0.2 g/L [4] [%]
CC[C@H](C)[C@H](NC(=O)[C@@H]1C[C@@H](O)CN1C(=O)[C@@H](N=C(N(C)C)N(C)C)C(C)C)C(=O)N[C@H](C(=O)N[C@@H](Cc1ccc(O)cc1)C(=O)N[C@@H]1C(=O)N[C@@H](CC(N)=O)C(=O)N[C@@H](CCCNC(=N)N)C(=O)N[C@@H](CCN)C(=O)N[C@@H]([C@@H](C)O)C(=O)N[C@H](CCN)C(=O)N[C@@H](CCCCN)C(=O)N[C@H](C(=O)N[C@@H](CCN)C(=O)N[C@@H](CCCNC(=N)N)C(=O)N[C@@H](Cc2ccc(O)cc2)C(=O)O)CSSC1(C)C)[C@@H](C)O [Example 203] (HELM PEPTIDE1{[CC(C)[C@H](N=C(N(C)C)N(C)C)C(=O)[*:2]].[Hyp].I.T.Y.[Pen].N.R.[Dab].T.[NCC[C@@H](N[*:1])C(=O)[*:2]].K.C.[Dab].R.Y}$PEPTIDE1,PEPTIDE1,6:R3-13:R3$$$V2.0)	0.25	0.5		0.125	0
CCCC[C@H](NC(=O)[C@H](CCCNC(=N)N)NC(=O)[C@H](CCN)NC(=O)[C@@H]1CSSC[C@H](NC(=O)[C@H](Cc2ccc(O)cc2)NC(=O)[C@@H](NC(=O)[C@@H](NC(=O)[C@@H]2CCCN2C(=O)[C@@H](NC(=O)[C@@H](CCCCN)NC(=O)[C@H](CCCCN)NC(=O)[C@H](N)C(C)C)C(C)C)[C@@H](C)CC)[C@@H](C)CC)C(=O)N[C@@H](CC(N)=O)C(=O)N[C@@H](CCCNC(=N)N)C(=O)N[C@@H](CCCNC(=N)N)C(=O)N[C@@H]([C@@H](C)O)C(=O)N[C@H](CCN)C(=O)N[C@@H](CCCCN)C(=O)N1)C(=O)O [Example 76] (HELM PEPTIDE1{[dV].K.[dK].V.P.I.I.Y.C.N.R.R.T.[NCC[C@@H](N[*:1])C(=O)[*:2]].K.C.[Dab].R.[Nle]}$PEPTIDE1,PEPTIDE1,9:R3-16:R3$$$V2.0)	0.0625	0.125	≤0.03125		0
CC[C@H](C)[C@H](NC(=O)[C@@H](NC(=O)[C@@H]1CCCN1C(=O)[C@@H](NC(=O)[C@@H]1CCCN1C(=O)[C@H](CCCCN)NC(=O)[C@@H](N)CCCCN)C(C)C)[C@@H](C)CC)C(=O)N[C@@H](Cc1ccc(O)cc1)C(=O)N[C@H]1CSSC[C@@H](C(=O)N[C@@H](CCN)C(=O)N[C@@H](CCCNC(=N)N)C(=O)N[C@@H](Cc2ccc(O)cc2)C(=O)O)NC(=O)[C@H](CCCCN)NC(=O)[C@@H](CCN)NC(=O)[C@H]([C@@H](C)O)NC(=O)CN(CCCCN)C(=O)[C@H](CCCNC(=N)N)NC(=O)[C@H](CC(N)=O)NC1=O [Example 105] (HELM PEPTIDE1{K.K.P.V.P.I.I.Y.C.N.R.[NCCCCN(CC(=O)[*:2])[*:1]].T.[NCC[C@@H](N[*:1])C(=O)[*:2]].K.C.[Dab].R.Y}$PEPTIDE1,PEPTIDE1,9:R3-16:R3$$$V2.0)	0.125	0.125	0.0625		0
CC[C@H](C)[C@H](NC(=O)[C@@H](NC(=O)[C@@H]1C[C@@H](N)CN1C(=O)[C@@H](NC(=N)N)C(C)C)[C@@H](C)CC)C(=O)N[C@@H](Cc1ccc(O)cc1)C(=O)N[C@@H]1C(=O)N[C@@H](CC(N)=O)C(=O)N[C@@H](CCCNC(=N)N)C(=O)N[C@@H](CCN)C(=O)N[C@@H]([C@@H](C)O)C(=O)N[C@H](CCN)C(=O)N[C@@H](CCCCN)C(=O)N[C@H](C(=O)N[C@@H](Cc2ccc(O)cc2)C(=O)N[C@@H](CCCNC(=N)N)C(=O)N[C@@H](Cc2ccc(O)cc2)C(=O)O)CSSC1(C)C [Example 200] ({Val(Nα-amidino)}-[Pro(4R-NH2)]IIY[Pen]NR[Dab]T[dDab]KCYRY-OH; disulfide 5-12)	0.5	0.125		0.125	0
CC[C@H](C)[C@H](NC(=O)[C@@H]1C[C@@H](N)CN1C(=O)[C@@H](N)C(C)C)C(=O)N[C@H](C(=O)N[C@@H](Cc1ccc(O)cc1)C(=O)N[C@@H]1C(=O)N[C@@H](CC(N)=O)C(=O)N[C@@H](CCCNC(=N)N)C(=O)N[C@@H](CCN)C(=O)N[C@@H]([C@@H](C)O)C(=O)N[C@H](CCN)C(=O)N[C@@H](CCCCN)C(=O)N[C@H](C(=O)N[C@@H](Cc2ccc(O)cc2)C(=O)N[C@@H](CCCNC(=N)N)C(=O)N[C@@H](Cc2ccc(O)cc2)C(=O)O)CSSC1(C)C)[C@@H](C)O [Example 185] (HELM PEPTIDE1{V.[N[C@@H]1C[C@@H](C(=O)[*:2])N([*:1])C1].I.T.Y.[Pen].N.R.[Dab].T.[NCC[C@@H](N[*:1])C(=O)[*:2]].K.C.Y.R.Y}$PEPTIDE1,PEPTIDE1,6:R3-13:R3$$$V2.0)	0.25	0.5		0.125	0
CCC(CC)[C@H](NC(=O)[C@H](CCCNC(=N)N)NC(=O)[C@H](CCN)NC(=O)[C@@H]1CSSC[C@H](NC(=O)[C@H](Cc2ccc(O)cc2)NC(=O)[C@@H](NC(=O)[C@@H](NC(=O)[C@@H]2CCCN2C(=O)[C@@H](NC(=O)[C@@H]2CCCN2C(=O)[C@H](CCCCN)NC(=O)[C@@H](N)CCCCN)C(C)C)[C@@H](C)CC)[C@@H](C)CC)C(=O)N[C@@H](CC(N)=O)C(=O)N[C@@H](CCCNC(=N)N)C(=O)N[C@@H](CCN)C(=O)N[C@@H]([C@@H](C)O)C(=O)N[C@H](CCN)C(=O)N[C@@H](CCCCN)C(=O)N1)C(=O)O [Example 82] (HELM PEPTIDE1{K.K.P.V.P.I.I.Y.C.N.R.[Dab].T.[NCC[C@@H](N[*:1])C(=O)[*:2]].K.C.[Dab].R.[CCC(CC)[C@H](N[*:1])C(=O)O]}$PEPTIDE1,PEPTIDE1,9:R3-16:R3$$$V2.0)	0.0625	0.125	0.0625		0

Second part, led by results:

Escherichia coli ATCC 25922 MIC [1] [mg/L]	Klebsiella pneumoniae SSI3010 MIC [3] [mg/L]	Escherichia coli MCR-1 Af 45 MIC ([2]; MCR-1 Af 45) [mg/L]	Compound	Escherichia coli MCR-1 Af 45 MIC [2, 5] [mg/L]	Hemolysis at 0.2 g/L [4] [%]
0.0625	0.125	0.0625	CC[C@H](C)[C@H](NC(=O)[C@@H](NC(=O)[C@@H]1CCCN1C(=O)[C@@H](NC(=O)CNC(=O)CNC(=O)[C@@H](N)CCCCN)C(C)C)[C@@H](C)CC)C(=O)N[C@@H](Cc1ccc(O)cc1)C(=O)N[C@@H]1C(=O)N[C@@H](CC(N)=O)C(=O)N[C@@H](CCCNC(=N)N)C(=O)N[C@@H](CCN)C(=O)N[C@@H]([C@@H](C)O)C(=O)N[C@H](CCN)C(=O)N[C@@H](CCCCN)C(=O)N[C@H](C(=O)N[C@@H](CCN)C(=O)N[C@@H](CCCNC(=N)N)C(=O)N[C@@H](Cc2ccc(O)cc2)C(=O)O)CSSC1(C)C [Example 93] (HELM PEPTIDE1{K.G.G.V.P.I.I.Y.[Pen].N.R.[Dab].T.[NCC[C@@H](N[*:1])C(=O)[*:2]].K.C.[Dab].R.Y}$PEPTIDE1,PEPTIDE1,9:R3-16:R3$$$V2.0)		0
0.0625	0.125	0.125	CC[C@H](C)[C@H](NC(=O)[C@@H]1C[C@@H](O)CN1C(=O)[C@@H](NC(=O)[C@@H]1C[C@@H](O)CN1C(=O)[C@H](CCCCN)NC(=O)[C@@H](N)CCCCN)C(C)C)C(=O)N[C@H](C(=O)N[C@@H](Cc1ccc(O)cc1)C(=O)N[C@@H]1C(=O)N[C@@H](Cc2c[nH]cn2)C(=O)N[C@@H](CCCNC(=N)N)C(=O)N[C@@H](CCN)C(=O)N[C@@H]([C@@H](C)O)C(=O)N[C@H](CCN)C(=O)N[C@@H](CCCCN)C(=O)N[C@H](C(=O)N[C@@H](CCN)C(=O)N[C@@H](CCCNC(=N)N)C(=O)N[C@@H](Cc2ccc(O)cc2)C(=O)O)CSSC1(C)C)[C@@H](C)O [Example 122, Lys-Lys-Hyp-Val-Hyp-Ile-Thr-Tyr-Pen-His-Arg-Dab-Thr-^DDab-Lys-Cys-Dab-Arg-Tyr] (HELM PEPTIDE1{K.K.[Hyp].V.[Hyp].I.T.Y.[Pen].H.R.[Dab].T.[NCC[C@@H](N[*:1])C(=O)[*:2]].K.C.[Dab].R.Y}$PEPTIDE1,PEPTIDE1,9:R3-16:R3$$$V2.0)		0
0.125	0.125	0.0625	CC[C@H](C)[C@H](NC(=O)[C@@H]1C[C@@H](O)CN1C(=O)[C@@H](NC(=O)[C@@H]1C[C@@H](O)CN1C(=O)[C@H](CCCCN)NC(=O)[C@@H](N)CCCCN)C(C)C)C(=O)N[C@H](C(=O)N[C@@H](Cc1ccc(O)cc1)C(=O)N[C@@H]1C(=O)N[C@@H](CC(N)=O)C(=O)N[C@@H](CCCNC(=N)N)C(=O)N[C@@H](CCN)C(=O)N[C@@H]([C@@H](C)O)C(=O)N[C@H](CCN)C(=O)N[C@@H](CCCCN)C(=O)N[C@H](C(=O)N[C@@H](Cc2ccc(O)cc2)C(=O)N[C@@H](CCCNC(=N)N)C(=O)N[C@@H](Cc2ccc(O)cc2)C(=O)O)CSSC1(C)C)[C@@H](C)O [Example 128, Lys-Lys-Hyp-Val-Hyp-Ile-Thr-Tyr-Pen-Asn-Arg-Dab-Thr-^DDab-Lys-Cys-Tyr-Arg-Tyr] (HELM PEPTIDE1{K.K.[Hyp].V.[Hyp].I.T.Y.[Pen].N.R.[Dab].T.[NCC[C@@H](N[*:1])C(=O)[*:2]].K.C.Y.R.Y}$PEPTIDE1,PEPTIDE1,9:R3-16:R3$$$V2.0; N-terminus and C-terminus assumed)		0
